Laboratory results reported in patent US20140242093A1, “METHODS AND COMPOSITIONS FOR MODULATING THE INNATE IMMUNE RESPONSE AND/OR MYOGENESIS IN A MAMMALIAN SUBJECT” (FRED HUTCHINSON CANCER RESEARCH CENTER, priority 2011, published 2014).

Test system: control human primary myoblasts
Test: Expression microarray of primary myoblasts transduced with lentivirus carrying DUX4-fl, DUX4-s or GFP
Method: Primary human myoblasts were collected and cultured as previously described (Snider et al., 2010). Primary myoblasts were maintained at or below 70% confluency for proliferation. For differentiation, cells were allowed to reach 95-100% confluency in growth medium. Once confluency was reached, the cells were changed to differentiation medium (F10 media supplemented with 1% horse serum, 10 μg/mL insulin, and 10 μg/mL transferrin, penicillin/streptomycin) and maintained for 4 days. Human RD cells were grown in DMEM in 10% bovine calf serum (Hyclone) and penicillin/streptomycin. The primary myoblasts were transduced with lentivirus carrying DUX-fl, DUX4- or GFP (MOI=15).
Expression microarrays were performed on the transduced cells at 24 hours after transduction as follows. […] Samples were analyzed by Illumina Human Whole Genome microarrays. Probe intensities were corrected, normalized, and summarized by the Lumi package of Bioconductor (Du et al., 2008). Differentially expressed genes were identified by the LIMMA package of Bioconductor (Wettenhall and Smyth, 2004). Gene set enrichment analysis (GSEA) was performed using the Bioconductor GOstats package (Falcon and Gentleman, 2007).

## DUX4-fl: full-length DUX4 protein (SEQ ID NO:110), expressed from lentiviral or pCS2 vectors or in vitro translated
Refseq NM_004000.2, cultured human skeletal muscle
  CHI3L2 expression fc: −2.705
Refseq NM_004029.2, cultured human skeletal muscle
  IRF7 expression fc: −1.959
Refseq NM_004075.2
  CRY1 expression fc: 2.342
Refseq NM_004158.2
  PSPN expression fc: 2.203
Refseq NM_004183.2
  BEST1 fc: −1.101
Refseq NM_004223.3, cultured human skeletal muscle
  UBE2L6 expression fc: −3.085
Refseq NM_004226.2
  fc of STK17B (expression array): −0.05995
Refseq NM_004252.2
  fc of SLC9A3R1 (expression array): −1.036
Refseq NM_004335.2, cultured human skeletal muscle
  BST2 expression fc: −4.248
Refseq NM_004379.2
  CREB1 fc: −1.133
Refseq NM_004502.3
  fc of HOXB7 (expression array): −1.037
Refseq NM_004510.2, cultured human skeletal muscle
  SP110 expression fc: −2.941
Refseq NM_004577.3
  PSPH fc: −1.164
Refseq NM_004628.3, cultured human skeletal muscle
  XPC expression fc: −2.458
Refseq NM_004643.1
  PABPN1 expression fc: 2.567
Refseq NM_004672.3
  MAP3K6 fc: −1.074
Refseq NM_004695.2
  fc of SLC16A5 (expression array): −1.025
Refseq NM_004719.2
  fc of SFRS2IP (expression array): −0.0565
Refseq NM_004723.2
  fc of ARHGEF2 (expression array): −1.057
Refseq NM_004740.3
  TIAF1 fc: −1.123
Refseq NM_004741.1
  NOLC1 expression fc: 2.439
Refseq NM_004787.1
  SLIT2 expression fc: 2.369
Refseq NM_004811.1
  LPXN fc: −1.124
Refseq NM_004813.1
  PEX16 fc: −1.101
Refseq NM_004816.2
  C9orf61 expression fc: 2.614
Refseq NM_004831.3
  MED26 expression fc: 2.1
Refseq NM_004832.1
  fc of GSTO1 (expression array): −1.03
Refseq NM_004862.2
  fc of LITAF (expression array): −0.5892
Refseq NM_004866.4
  fc of SCAMPI (expression array): −0.4749
Refseq NM_004886.3
  fc of APBA3 (expression array): −1.032
Refseq NM_005025.3
  SERPINI1 expression fc: 1.809
Refseq NM_005082.4, cultured human skeletal muscle
  TRIM25 expression fc: −2.513
Refseq NM_005088.2
  SFRS17A expression fc: 2.456
Refseq NM_005101.1, cultured human skeletal muscle
  ISG15 expression fc: −4.311
Refseq NM_005115.3
  MVP fc: −1.178
Refseq NM_005121.2
  MED13 expression fc: 1.817
Refseq NM_005132.2
  fc of REC8 (expression array): −1.007
Refseq NM_005177.3
  ATP6V0A1 fc: −1.152
Refseq NM_005194.2, cultured human skeletal muscle
  CEBPB expression fc: −2.441
Refseq NM_005238.2
  ETS1 fc: −1.067
Refseq NM_005245.3
  FAT1 fc: −1.138
Refseq NM_005302.2
  GPR37 expression fc: 2.121
Refseq NM_005318.2, cultured human skeletal muscle
  H1F0 expression fc: −2.434
Refseq NM_005345.4
  HSPA1A expression fc: 3.54
Refseq NM_005346.3
  HSPA1B expression fc: 3.402
Refseq NM_005382.1
  NEFM expression fc: 2.925
Refseq NM_005412.4
  SHMT2 fc: −1.089
Refseq NM_005419.2, cultured human skeletal muscle
  STAT2 expression fc: −2.69
Refseq NM_005442.2
  EOMES expression fc: 2.897
Refseq NM_005488.1
  TOM1 fc: −1.129
Refseq NM_005514.5, cultured human skeletal muscle
  HLA-B expression fc: −2.752
Refseq NM_005516.4
  HLA-E fc: −1.11
Refseq NM_005531.1, cultured human skeletal muscle
  IFI16 expression fc: −2.008
Refseq NM_005532.3, cultured human skeletal muscle
  IFI27 expression fc: −6.527
Refseq NM_005533.2, cultured human skeletal muscle
  IFI35 expression fc: −3.847
Refseq NM_005544.1
  IRS1 fc: −1.157
Refseq NM_005552.4
  KLC1 expression fc: 1.967
Refseq NM_005613.3
  RGS4 expression fc: 1.951
Refseq NM_005627.2
  SGK expression fc: 2.04
Refseq NM_005640.1
  TAF4B expression fc: 1.87
Refseq NM_005652.2
  fc of TERF2 (expression array): −1.02
Refseq NM_005669.4
  fc of REEP5 (expression array): −0.3556
Refseq NM_005734.3
  fc of HIPK3 (expression array): −0.2982
Refseq NM_005744.2
  ARIH1 expression fc: 2.243
Refseq NM_005746.2
  fc of NAMPT (expression array): −0.5767
Refseq NM_005779.1
  LHFPL2 fc: −1.13
Refseq NM_005819.4
  STX6 expression fc: 2.053
Refseq NM_005822.2
  fc of RCAN2 (expression array): −0.5968
Refseq NM_005928.1
  MFGE8 fc: −1.15
Refseq NM_005952.2, cultured human skeletal muscle
  MT1X expression fc: −2.444
Refseq NM_005985.2
  SNAI1 expression fc: 1.943
Refseq NM_006047.4
  RBM12 expression fc: 2.013
Refseq NM_006074.3, cultured human skeletal muscle
  TRIM22 expression fc: −2.581
Refseq NM_006077.2
  CBARA1 expression fc: 2.064
Refseq NM_006088.5
  TUBB2C expression fc: 1.948
Refseq NM_006148.1
  LASP1 fc: −1.152
Refseq NM_006164.2
  NFE2L2 fc: −1.093
Refseq NM_006187.2, cultured human skeletal muscle
  OAS3 expression fc: −4.029
Refseq NM_006207.1
  fc of PDGFRL (expression array): −0.6227
Refseq NM_006263.2
  PSME1 fc: −1.138
Refseq NM_006281.2
  STK3 expression fc: 2.186
Refseq NM_006288.2
  THY1 fc: −1.067
Refseq NM_006290.2, cultured human skeletal muscle
  TNFAIP3 expression fc: −2.897
Refseq NM_006308.1
  HSPB3 expression fc: 1.914
Refseq NM_006362.4
  NXF1 expression fc: 4.233
Refseq NM_006395.1
  fc of ATG7 (expression array): −1.016
Refseq NM_006424.2
  SLC34A2 expression fc: 5.514
Refseq NM_006440.3
  TXNRD2 fc: −1.104
Refseq NM_006454.2
  fc of MXD4 (expression array): −1.035
Refseq NM_006465.2
  ARID3B expression fc: 2.024
Refseq NM_006472.2, cultured human skeletal muscle
  TXNIP expression fc: −1.9
Refseq NM_006526.2
  ZNF217 expression fc: 4.114
Refseq NM_006589.2
  FAM189B fc: −1.075
Refseq NM_006602.2
  fc of TCFL5 (expression array): −1.053
Refseq NM_006605.1
  RFPL2 expression fc: 7.293
Refseq NM_006617.1
  fc of NES (expression array): −0.08904
Refseq NM_006644.2
  HSPH1 expression fc: 2.217
Refseq NM_006674.2
  HCP5 fc: −1.099
Refseq NM_006759.3
  UGP2 fc: −1.169
Refseq NM_006820.1, cultured human skeletal muscle
  IFI44L expression fc: −5.117
Refseq NM_006825.2
  fc of CKAP4 (expression array): −1.006
Refseq NM_006844.3
  fc of ILVBL (expression array): −1.015
Refseq NM_006855.2
  KDELR3 fc: −1.163
Refseq NM_006877.2
  fc of GMPR (expression array): −0.4519
Refseq NM_006931.1
  SLC2A3 expression fc: 3.385
Refseq NM_006948.4
  fc of HSPA13 (expression array): −0.1756
Refseq NM_006977.2
  ZBTB25 fc: −1.113
Refseq NM_006988.3
  ADAMTS1 fc: −1.164
Refseq NM_007021.2, cultured human skeletal muscle
  C1Oorf10 expression fc: −2.641
Refseq NM_007034.3
  fc of DNAJB4 (expression array): −1.024
Refseq NM_007044.2
  KATNA1 expression fc: 1.819
Refseq NM_007106.2
  UBL3 expression fc: 2.164
Refseq NM_007170.2
  TESK2 expression fc: 1.787
Refseq NM_007172.3
  NUP50 expression fc: 2.324
Refseq NM_007229.1
  fc of PACSIN2 (expression array): −1.038
Refseq NM_007240.1
  DUSP12 expression fc: 2.249
Refseq NM_007283.5
  fc of MGLL (expression array): −1.033
Refseq NM_007315.2, cultured human skeletal muscle
  STAT1 expression fc: −2.915
Refseq NM_009587.2
  fc of LGALS9 (expression array): −0.8549
Refseq NM_012083.2
  FRAT2 expression fc: 1.918
Refseq NM_012121.4
  fc of CDC42EP4 (expression array): −1.034
Refseq NM_012124.1
  CHORDC1 expression fc: 1.805
Refseq NM_012130.2
  CLDN14 expression fc: 3.148
Refseq NM_012143.2
  TFIP11 expression fc: 3.191
Refseq NM_012238.3
  SIRT1 expression fc: 1.844
Refseq NM_012285.1
  KCNH4 expression fc: 2.749
Refseq NM_012342.2
  BAMBI expression fc: 2.783
Refseq NM_012461.1
  fc of TINF2 (expression array): −1.025
Refseq NM_013230.2
  CD24 expression fc: 2.624
Refseq NM_013249.1
  ZNF214 expression fc: 2.219
Refseq NM_013254.2
  TBK1 fc: −1.08
Refseq NM_013262.3
  MYLIP expression fc: 1.824
Refseq NM_013293.3
  TRA2A expression fc: 1.978
Refseq NM_013302.3
  fc of EEF2K (expression array): −1.058
Refseq NM_013376.3
  SERTAD1 expression fc: 2.002
Refseq NM_013386.3
  fc of SLC25A24 (expression array): −0.2843
Refseq NM_013943.1
  fc of CLIC4 (expression array): −0.9976
Refseq NM_014038.1
  BZW2 expression fc: 2.677
Refseq NM_014045.3
  LRP10 fc: −1.102
Refseq NM_014138.3
  fc of FAM156A (expression array): −1.027
Refseq NM_014140.2
  SMARCAL1 fc: −1.157
Refseq NM_014167.2
  CCDC59 expression fc: 1.892
Refseq NM_014290.1
  fc of TDRD7 (expression array): −1.062
Refseq NM_014314.3, cultured human skeletal muscle
  DDX58 expression fc: −2.466
Refseq NM_014317.3
  PDSS1 expression fc: 2.003
Refseq NM_014324.4
  AMACR expression fc: 2.743
Refseq NM_014330.2
  PPP1R15A expression fc: 2.08
Refseq NM_014399.3
  TSPAN13 expression fc: 2.117
Refseq NM_014508.2
  APOBEC3C fc: −1.108
Refseq NM_014556.2, cultured human skeletal muscle
  EVC expression fc: −1.954
Refseq NM_014575.2, cultured human skeletal muscle
  SCHIP1 expression fc: −2.093
Refseq NM_014585.3
  SLC40A1 expression fc: 1.859
Refseq NM_014603.1
  CDR2L fc: −1.119
Refseq NM_014604.2
  TAX1BP3 fc: −1.072
Refseq NM_014633.3
  CTR9 expression fc: 2.402
Refseq NM_014655.1
  SLC25A44 expression fc: 2.017
Refseq NM_014751.4
  MTSS1 fc: −1.159
Refseq NM_014831.1
  LBA1 fc: −1.121
Refseq NM_014878.4
  KIAA0020 expression fc: 2.017
Refseq NM_014945.2
  ABLIM3 fc: −1.174
Refseq NM_014969.4
  WDR47 expression fc: 2.277
Refseq NM_015193.3
  ARC expression fc: 1.802
